Measured values: patent US20260116847A1 (priority 2023, published 2026)

Legend:
[1] = system: kainic acid-induced status epilepticus model; conditions: mouse study; cited from earlier work
[2] = system: tumor-specific antigens (CEA, CA 19/9, CA 125, prostate-specific antigen); conditions: meta-analysis of phase I/II trials, over 400 patients, solid tumors; cited from earlier work
[3] = Thermogravimetric analysis (TGA); format: physicochemical; conditions: 10° C./min; for weight loss (TG): 25° C.-195° C.; for degradation temperature (TG): range 25° C.-320° C.
Description: Thermogravimetric analysis for the crystalline polymorphic form I, II and III was performed using a Mettler Toledo TGA/DSC1 apparatus. The sample was weighed in an aluminum pan closed with an aluminum cover with holes.
[…] […] The degradation occurred above 200° C. The TG analysis proves that the crystalline polymorphic form I of marimastat exists in the anhydrous form.
[…] […] The degradation occurred above 200° C. The TG analysis proves that the crystalline polymorphic form II of marimastat exists in the anhydrous form.
This sample was analyzed by TGA-EGA. The analysis was performed at a temperature of 25° C.-320° C. at a rate of 10° C./min. […] The degradation occurred above 200° C. The TG analysis proves that the crystalline polymorphic form III of marimastat exists in the anhydrous form.

[4] = Stability studies of solid forms under storage conditions, XRPD; format: physicochemical; conditions: 25° C./100% RH and 40° C./75% RH 7 days; 30°/100 mbar 1 hour; room temperature 1 year; above 150° C.
Description: Stability studies of the amorphous form, pure crystalline polymorphic forms I, II and III and the mixture of the crystalline polymorphic forms I and III were carried out under the following conditions: 25° C./100% RH (relative humidity) and 40° C./75% RH (relative humidity) for 7 days, at 30°/100 mbar for 1 hour, at room temperature for 1 year, and also at elevated temperature (above 150° C.).

[5] = Stability of the forms I, II and III stirred together in various solvents, XRPD; format: physicochemical; conditions: for thermodynamic stability of the form: maceration of the mixture of all three forms in different solvents, room temperature, 4 days; for XRPD form after stirring: 25 °C, 4 d
Source text: The remaining 7 solvents gave the initial mixture of three polymorphic forms. Thus, when using the mixture of all three forms for maceration in different solvents, complete disappearance of the form II and the form III, complete disappearance of the form II, or all three forms remaining in the mixture were observed. The complete disappearance of the form I was not observed in any of the experiments.

[6] = Solubility tests in water; format: physicochemical; conditions: comparison of forms I, II and III
Description: Solubility tests were performed by dissolving samples of pure forms of marimastat in water.

[7] = Stability of the form II in various solvents at room temperature, XRPD; format: physicochemical; conditions: for XRPD form after stirring: 25 °C, 4 d
Description: The stability of the form II in various solvents at room temperature was tested. Experiments were performed by suspending the form II in 1 ml of solvent and the formed suspension was stirred at room temperature at 25° C. for 4 days. Then, the precipitate was filtered off and the samples were dried at a temperature of 30° C./100 mbar for one hour, followed by XRPD analysis.

[8] = Microscopic examinations / bulk density; format: physicochemical; conditions: comparison of the forms
Description: Microscopic examinations were performed using an optical microscope or electron microscope.

In the case of `CNC(=O)[C@@H](NC(=O)[C@H](CC(C)C)[C@H](O)C(=O)NO)C(C)(C)C` [Marimastat, (2R,3S)—N-1-((S)-3,3-dimethyl-1-methylamino-1-oxobutan-2-yl)-N-4,3-dihydroxy-2-isobutylsuccinamide], the “duration and number of seizures” value [1] is given as “reduced the duration and number of seizures” and the “growth indicators of tumor-specific antigens” value [2] is given as “significantly reduced all four growth indicators of tumor-specific antigens in a dose-dependent manner”.

For `CNC(=O)[C@@H](NC(=O)[C@H](CC(C)C)[C@H](O)C(=O)NO)C(C)(C)C` [form III], the “weight loss (TG)” value [3] was 0.4%, the “degradation temperature (TG)” value [3] was “above 200 °C” and the “stability by XRPD (changes in diffraction lines)” value [4] was “stable”. For the same compound, the “thermodynamic stability of the form” value [5] was “kinetic forms” and the “rate of dissolution in water” value [6] was “fastest soluble in water”.

For `CNC(=O)[C@@H](NC(=O)[C@H](CC(C)C)[C@H](O)C(=O)NO)C(C)(C)C` [form II], the “weight loss (TG)” value [3] was 0.2%, the “degradation temperature (TG)” value [3] was “above 200 °C” and the “stability by XRPD (changes in diffraction lines)” value [4] was “stable”. The “thermodynamic stability of the form” value [5] was “kinetic forms”, the “XRPD form after stirring” value ([7]; 2-propanol, 30 mg/mL) was “Form II” and the “XRPD form after stirring” value ([7]; acetonitrile, 10 mg/mL) was “Form I”. For the same compound, the “XRPD form after stirring” value ([7]; butyl acetate, 10 mg/mL) was “Form Il”, the “XRPD form after stirring” value ([7]; ethanol, 10 mg/mL) was “Form II” and the “XRPD form after stirring” value ([7]; methanol, 110 mg/mL) was “Form I”. The “XRPD form after stirring” value ([7]; methylcyclohexane, 10 mg/mL) was “Form II”, the “XRPD form after stirring” value ([7]; methylene chloride, 20 mg/mL) was “Form II” and the “XRPD form after stirring” value ([7]; p-xylene, 20 mg/mL) was “Form II”. For the same compound, the “XRPD form after stirring” value ([7]; water, 30 mg/mL) was “Form II” and the bulk density [8] was “highest and comparable bulk density”.

For `CNC(=O)[C@@H](NC(=O)[C@H](CC(C)C)[C@H](O)C(=O)NO)C(C)(C)C` [form I], the “weight loss (TG)” value [3] was 0.3%, the “degradation temperature (TG)” value [3] was “above 200 °C” and the “stability by XRPD (changes in diffraction lines)” value [4] was “stable”. The “thermodynamic stability of the form” value [5] was “most thermodynamically stable”, the “thermodynamic stability of the form” value ([7]; form II stirred in solvents, 25° C., 4 days) was “greatest thermodynamic stability” and the bulk density [8] was “highest and comparable bulk density”. The “rate of dissolution in water” value [6] was “dissolves the slowest”.

With `CNC(=O)[C@@H](NC(=O)[C@H](CC(C)C)[C@H](O)C(=O)NO)C(C)(C)C` [mixture of the forms I and III] the “stability by XRPD (changes in diffraction lines)” value [4] was “stable”.

For `CNC(=O)[C@@H](NC(=O)[C@H](CC(C)C)[C@H](O)C(=O)NO)C(C)(C)C` [mixture of three polymorphic forms], the “XRPD form after stirring” value ([5]; 2-propanol, 30 mg/mL) was “Form I + Form III”, the “XRPD form after stirring” value ([5]; acetone, 10 mg/mL) was “Form I” and the “XRPD form after stirring” value ([5]; acetonitrile, 10 mg/mL) was “Form I”. For the same compound, the “XRPD form after stirring” value ([5]; butyl acetate, 10 mg/mL) was “Form I + Form II + Form III”, the “XRPD form after stirring” value ([5]; dimethoxyethane, 10 mg/mL) was “Form I” and the “XRPD form after stirring” value ([5]; ethanol, 10 mg/mL) was “Form I”. The “XRPD form after stirring” value ([5]; heptane, 10 mg/mL) was “Form I + Form II + Form III”, the “XRPD form after stirring” value ([5]; methanol, 110 mg/mL) was “Form I” and the “XRPD form after stirring” value ([5]; methyl isobutyl ketone, 10 mg/mL) was “Form I + Form II + Form III”. The “XRPD form after stirring” value ([5]; methyl tert-butyl ether, 10 mg/mL) was “Form I + Form III”, the “XRPD form after stirring” value ([5]; methylcyclohexane, 10 mg/mL) was “Form I + Form II + Form III” and the “XRPD form after stirring” value ([5]; methylene chloride, 10 mg/mL) was “Form I + Form II + Form III”. The “XRPD form after stirring” value ([5]; p-xylene, 10 mg/mL) was “Form I + Form II + Form III”, the “XRPD form after stirring” value ([5]; tetrahydrofuran, 10 mg/mL) was “Form I” and the “XRPD form after stirring” value ([5]; toluene, 10 mg/mL) was “Form I + Form II + Form III”. The “XRPD form after stirring” value ([5]; water, 30 mg/mL) was “Form I + Form III”.
